Legend:
[1] = Brookfield viscosity, SC4-18 spindle, 100 rpm; type: physicochemical
Procedure: The procedure used a Brookfield viscometer.
The apparatus used was a Brookfield viscometer, Programmable DV-II+Viscometer and a SC4-18 spindle.
The samples were tested at 100 rpm and at a range of temperatures, as shown in Table 4—Viscosity Measurement Results below.
All measurements were made in centipoise. For reference purposes, the viscosity of water, at 25° C. is 0.89 centipoise, and the viscosity of ethylene glycol at 25° C. is about 16 centipoise.

[2] = Physical properties at freezing temperatures and on thawing (Example 3); type: physicochemical
Procedure: The following samples were tested to observe their physical properties at freezing temperatures:
After blending, such as by the method above, for example, all samples were allowed to cool to room temperature (20° C.). All samples stayed liquid at room temperature, except for blend 5.
All samples were placed in a freezer overnight ([…]).
All samples were placed back in the same freezer at the same temperature for an additional 2 days. In the BCP sample, there was-no change.
All samples were left at room temperature to thaw overnight.

[3] = 25° C., for reference purposes; cited from earlier work

Compound | viscosity ([1]; 10 ° C.) | viscosity ([1]; 40 ° C.) [centipoise] | physical state after overnight freezing ([2]; freezer overnight (23° C.)) | physical state after extended freezing ([2]; same freezer, same temperature, additional 2 days) | viscosity (reference) [3]
Oc1ccc(Cl)cc1Cc1ccccc1 [BCP, o-benzyl p-chlorophenol] | Crystalline | 29.4 | frozen solid | no change | 
OCCO [ethylene glycol] |  |  |  |  | about 16 centipoise
O [water] |  |  |  |  | 0.89 centipoise

— patent publication US20070292465A1, “Eutectic biocide compositions and formulations” (Clariant International, Ltd., priority 2006, published 2007)
